Test results taken from ChEMBL document CHEMBL1125190, “Synthesis and anticancer and antiviral activities of various 2'- and 3'-methylidene-substituted nucleoside analogues and crystal structure of 2'-deoxy-2'-methylidenecytidine hydrochloride” (J Med Chem, 1991).
pEC50: −log10 of the molar value. Active and inactive are the calls of the source. The calls are words filed in the database; no cut-off is given here.

Columns and labels:
CCRF-CEM [1] = test: Concentration required to inhibit replication of CCRF-CEM cell lines by 50% after 72 hr incubation; assay type: functional; settings: Homo sapiens, read-out: ED50 (the source's name)
Human alphaherpesvirus 1 = test: Concentration required to inhibit 90% of virus yield during 24-h growth period in HSV-1 cell lines; assay type: functional
HSV-2 = test: Concentration required to inhibit 90% of virus yield during 24-h growth period in HSV-2 cell lines; assay type: functional, Human alphaherpesvirus 2
L1210 [2] = test: Concentration required to inhibit replication of L1210 cell lines by 50% after 72 hr incubation; assay type: functional; settings: Mus musculus, L1210, 72 h; read-out: ED50 (the source's name)
P388 = test: Concentration required to inhibit replication of P388 cell lines by 50% after 72 hr incubation; assay type: functional; settings: Mus musculus, P388, 72 h; read-out: ED50 (the source's name)
CCRF S-180 = test: Concentration required to inhibit replication of S-180 cell lines by 50% after 72 hr incubation; assay type: functional; settings: Mus musculus, CCRF S-180, 72 h; read-out: ED50 (the source's name)
CCRF-CEM [3] = test: Concentration required to inhibit replication of CCRF-CEM deoxycytidine kinase deficient variant CCRF-CEM(dCK-); assay type: functional; settings: Homo sapiens, read-out: ED50 (the source's name)
Mus musculus [4] = test: (§1) Average survival time includes only those mice that died prior to day 60 at 75 mg/kg; assay type: functional
Mus musculus [5] = test: (§2) Average survival time includes only those mice that died prior to day 60 at 25 mg/kg; assay type: functional
Mus musculus [6] = test: (§3) Average survival time includes only those mice that died prior to day 60 at 50 mg/kg; assay type: functional
Mus musculus [7] = test: (§4) Ratio of survival time of treated to control mice at 25 mg/kg; assay type: functional
Mus musculus [8] = test: T/C*100 represents the ratio of survival time of treated to control mice *100 at 50 mg/kg; assay type: functional
Mus musculus [9] = test: T/C*100 represents the ratio of survival time of treated to control mice *100 at 75 mg/kg; assay type: functional
Mus musculus [10] = test: Long time survivors are the number mice that survived for >60 days relative to the number of treated mice at 75 mg/kg; 0 / 5; assay type: functional, organism-based; parameters: dose 75 mg/kg
Mus musculus [11] = test: Long time survivors are the number mice that survived for >60 days relative to the number of treated mice 25 mg/kg; 0 / 5; assay type: functional, organism-based; parameters: dose 25 mg/kg
Mus musculus [12] = test: Long time survivors are the number mice that survived for >60 days relative to the number of treated mice at 50 mg/kg; 0 / 5; assay type: functional, organism-based; parameters: dose 50 mg/kg
Mus musculus [13] = test: (§5) Ratio of survival time of treated to control mice at 50 mg/kg; assay type: functional
Mus musculus [14] = test: (§6) Ratio of survival time of treated to control mice at 75 mg/kg; assay type: functional
Mus musculus [15] = test: Death due to toxicity occurring at a maximum body weight decrease of 10 to 22% from the average post injection body weight at 25 mg/kg; 2 / 5; assay type: functional, organism-based; parameters: dose 25 mg/kg
Mus musculus [16] = test: Death due to toxicity occurring at a maximum body weight decrease of 10 to 22% from the average post injection body weight at 50 mg/kg; 5 / 5; assay type: functional, organism-based; parameters: dose 50 mg/kg
Mus musculus [17] = test: Death due to toxicity occurring at a maximum body weight decrease of 10 to 22% from the average post injection body weight at 75 mg/kg; 5 / 5; assay type: functional, organism-based; parameters: dose 75 mg/kg
L1210 [18] = test: as §4; assay type: functional, Mus musculus
L1210 [19] = test: as §5; assay type: functional, Mus musculus
L1210 [20] = test: as §6; assay type: functional, Mus musculus
L1210 [21] = test: as §2; assay type: functional, Mus musculus
L1210 [22] = test: as §3; assay type: functional, Mus musculus
L1210 [23] = test: as §1; assay type: functional, Mus musculus

Structure (SMILES) | pEC50 (CCRF-CEM [1]) | ID90 (Human alphaherpesvirus 1) [µM] | ID90 (HSV-2) [µM] | pEC50 (L1210 [2]) | pEC50 (P388) | pEC50 (CCRF S-180) | pEC50 (CCRF-CEM [3]) | other results
C=C1[C@H](n2cc(F)c(=O)[nH]c2=O)O[C@H](CO)[C@H]1O | 4.52 | >250 | >250 | 4.66 | < 4.00 | 5.19 |  | 
C=C1C(CO)OC(n2ccc(N)nc2=O)C1O (stereo not given) | < 4.00 | >250 | >250 | < 4.00 | < 4.00 | < 4.00 |  | 
C=C1C(n2ccc(N)nc2=O)O[C@H](CO)[C@@H]1O (stereo not given in full) | 7.52 | 26 | 5 | 6.52 | 6.40 | 5.82 | 4.11 | Average survival (days) (Mus musculus [4]): 20.8; Average survival (days) (Mus musculus [5]): 21.6; Average survival (days) (Mus musculus [6]): 21; T/C (Mus musculus [7]): 284; T/C (Mus musculus [8]): 276; T/C (Mus musculus [9]): 273
Nc1ccn([C@@H]2O[C@H](CO)[C@@H](O)[C@@H]2O)c(=O)n1 [CYTARABINE] | 8.22 |  |  | 7.30 | 7.70 | 6.70 | 3.92 | Average survival (days) (Mus musculus [4]): 8.4; Average survival (days) (Mus musculus [5]): 19.7; Average survival (days) (Mus musculus [6]): 9.6; Long-term survivors (Mus musculus [10]): inactive; Long-term survivors (Mus musculus [11]): inactive; Long-term survivors (Mus musculus [12]): inactive; T/C (Mus musculus [7]): 258; T/C (Mus musculus [13]): 126; T/C (Mus musculus [14]): 111; Toxic deaths (Mus musculus [15]): Partially active; Toxic deaths (Mus musculus [16]): Active; Toxic deaths (Mus musculus [17]): Active
C=C1[C@H](n2cc(C)c(N)nc2=O)O[C@H](CO)[C@H]1O | 4.66 | 32 | 125 | < 4.00 | < 4.00 | < 4.00 |  | 
C=C1[C@H](n2ccc(=O)[nH]c2=O)O[C@H](CO)[C@H]1O | < 4.00 | 50 | 50 | < 4.00 | < 4.00 | < 4.00 |  | 
C=C1C(CO)OC(n2ccc(=O)[nH]c2=O)C1O (stereo not given) | < 4.00 |  |  | < 4.00 | < 4.00 | < 4.00 |  | 
C=C1[C@H](n2cc(F)c(N)nc2=O)O[C@H](CO)[C@H]1O | 7.30 | 50 | 5 | 5.92 | 6.22 | 5.82 | 3.48 | T/C (L1210 [18]): 316; T/C (L1210 [19]): 279; T/C (L1210 [20]): 243; Average survival (days) (L1210 [21]): 24; Average survival (days) (L1210 [22]): 21.2; Average survival (days) (L1210 [23]): 18.5
C=C1[C@H](n2cc(C)c(=O)[nH]c2=O)O[C@H](CO)[C@H]1O | 5.00 |  |  | < 4.00 | < 4.00 | < 4.00 |  | 
